# Data: patent US4103008A, “7[2(2,3 Dioxopiperazin-1-yl-carbonylamino)substituted 2 phenylacetamido]-3-2'-thiadiazolyl cephalosporanic acid derivatives” (priority 1976, dated 1978)
# Where two headings read alike, the source gives them in different places.
# Experiments:
# [1] = tested on: Pseudomonas aeruginosa E2; experiment: MIC against Pseudomonas aeruginosa E2; assay type: cell-based
# [2] = tested on: Streptococcus faecalis ATCC 8043; experiment: In vitro antibacterial activity (MIC); assay type: cell-based; conditions: Enterococcus faecalis, ATCC8043
# [3] = tested on: Vibrio parahaemolyticus K - 3; experiment: In vitro antibacterial activity (MIC); assay type: cell-based; conditions: K3
# [4] = tested on: Escherichia coli C 73-1; experiment: In vitro antibacterial activity (MIC); assay type: cell-based; conditions: C731
# [5] = Serum concentration and accumulative urinary excretion in rabbit; conditions: in vivo, im; for concentration at 0.5 h: after 30 mins.
# Description: (§1) Given below are the test results of in vitro antibacterial activity studies, serum concentrations and accumulative urinary excretions in rabbits and the protecting effects in mice, of some representative compounds of the invention.
# (§2) The compounds used in the tests are shown in the following Table 1, but all of these compounds are in the form of the sodium salt.
# Each of the test compounds (20 mg/kg) was intramuscularly administered to one group of 3 rabbits, and the amounts of antibiotics were measured by a conventional method, using Sarcina lutea.
# [6] = tested on: Serratia strain No. 2; experiment: In vitro antibacterial activity (MIC); assay type: cell-based
# [7] = tested on: Pseudomonas strain C73-63; experiment: In vitro antibacterial activity (MIC); assay type: cell-based; conditions: C7363
# [8] = tested on: Staphylococcus aureus FDA 209NIH, P-J C-1; experiment: In vitro antibacterial activity (MIC); assay type: cell-based
# [9] = tested on: Vibrio parahaemolyticus K - 5; experiment: In vitro antibacterial activity (MIC); assay type: cell-based; conditions: K5
# [10] = tested on: Escherichia coli C 73-4; experiment: In vitro antibacterial activity (MIC); assay type: cell-based; conditions: C734
# [11] = tested on: Proteus morganii kono; experiment: In vitro antibacterial activity (MIC); assay type: cell-based; conditions: Morganella morganii
# [12] = tested on: Pseudomonas strain C73-83; experiment: In vitro antibacterial activity (MIC); assay type: cell-based; conditions: C7383
# Excerpt: as §1, §2
# [13] = tested on: Salmonella strain C73-1; experiment: In vitro antibacterial activity (MIC); assay type: cell-based; conditions: C731
# Excerpt: as §1, §2
# [14] = tested on: Salmonella strain C 73-30; experiment: In vitro antibacterial activity (MIC); assay type: cell-based; conditions: C7330
# Excerpt: as §1, §2
# [15] = tested on: Bacillus substilis ATCC 6633; experiment: In vitro antibacterial activity (MIC); assay type: cell-based; conditions: ATCC6633
# [16] = tested on: Salmonella enteritidis No. 11; experiment: In vitro antibacterial activity (MIC); assay type: cell-based; conditions: Salmonella enterica
# [17] = tested on: Klebsilla pneumoniae; experiment: In vitro antibacterial activity (MIC); assay type: cell-based
# [18] = tested on: Pseudomonas aerugenosa E 2 strain; experiment: ED50 in Pseudomonas infection in mice; assay type: in vivo; conditions: ICR-JCL mouse, male, 20g; P. aerugenosa E 2 3.6 × 10^4 intraperitoneal; compound intramuscular after 2 hrs.; ED50 after 7 days; sodium salts
# Excerpt: as §1, §2
# Pseudomonas aerugenosa E 2 strain (3.6 × 10^4) was intraperitonealy injected to each group of 10 of ICR-JCL mouse (male, 20g). After 2 hrs., each of the test compounds was intramuscularly administered to the infected mice and the ED50 values were measured after 7 days.
# [19] = tested on: Proteus morganii C73-23; experiment: In vitro antibacterial activity (MIC); assay type: cell-based; conditions: Morganella morganii, C7323
# [20] = tested on: Shigella dysenteriae shigae; experiment: microbe, parasite or virus in culture; assay type: cell-based
# [21] = tested on: Pseudomonas aeruginosa C73-2; experiment: In vitro antibacterial activity (MIC); assay type: cell-based; conditions: C732
# [22] = tested on: Enterobacter strain C73-17; experiment: In vitro antibacterial activity (MIC); assay type: cell-based; conditions: C7317
# [23] = tested on: Serratia strain No. 1; experiment: In vitro antibacterial activity (MIC); assay type: cell-based
# [24] = Streptococcus faecalis ATCC 8043, in vitro, sodium salts, read-out: MIC
# [25] = Vibrio parahaemolyticus K - 3, in vitro, sodium salts, read-out: MIC
# [26] = Escherichia coli C 73-1, in vitro, sodium salts, read-out: MIC
# [27] = 20 mg/kg intramuscular, sodium salts, Sarcina lutea assay
# [28] = Serratia strain No. 2, in vitro, sodium salts, read-out: MIC
# [29] = Pseudomonas strain C73-63, in vitro, sodium salts, read-out: MIC
# [30] = Staphylococcus aureus FDA 209NIH, P-J C-1, in vitro, sodium salts, read-out: MIC
# [31] = Vibrio parahaemolyticus K - 5, in vitro, sodium salts, read-out: MIC
# [32] = Escherichia coli C 73-4, in vitro, sodium salts, read-out: MIC
# [33] = Proteus morganii kono, in vitro, sodium salts, read-out: MIC
# [34] = Pseudomonas strain C73-83, in vitro, sodium salts, read-out: MIC
# [35] = Salmonella strain C73-1, in vitro, sodium salts, read-out: MIC
# [36] = Salmonella strain C 73-30, in vitro, sodium salts, read-out: MIC
# [37] = Bacillus substilis ATCC 6633, in vitro, sodium salts, read-out: MIC
# [38] = Salmonella enteritidis No. 11, in vitro, sodium salts, read-out: MIC
# [39] = Klebsilla pneumoniae, in vitro, sodium salts, read-out: MIC
# [40] = Proteus morganii C73-23, in vitro, sodium salts, read-out: MIC
# [41] = Pseudomonas aeruginosa C73-2, in vitro, sodium salts, read-out: MIC
# [42] = Enterobacter strain C73-17, in vitro, sodium salts, read-out: MIC
# [43] = Serratia strain No. 1, in vitro, sodium salts, read-out: MIC
compound,measurement,setting,value
"CCN1CCN(C(=O)N[C@@H](C(=O)NC2C(=O)N3C(C(=O)O)=C(CSc4nncs4)CS[C@H]23)c2ccc(OC(=O)OCC(C)C)cc2)C(=O)C1=O (single isomer, unassigned) [Example 17, 7-[D(-)-α-(4-ethyl-2,3-dioxopiperazin-1-yl-carbonylamino)-p-iso-butoxycarbonyloxyphenylacetamido]-3-(1,3,4-thiadiazol-2-yl-thiomethyl)-3-cephem-4-carboxylic acid]",MIC,[1],12.5 µg/mL
"CCOC(=O)Oc1ccc([C@@H](NC(=O)N2CCN(CC)C(=O)C2=O)C(=O)NC2C(=O)N3C(C(=O)O)=C(CSc4nnc(C)s4)CS[C@H]23)cc1Cl (single isomer, unassigned) [Example 12, 7-[D(-)-α-(4-ethyl-2,3-dioxopiperazin-1-yl-carbonylamino)-m-chloro-p-ethoxycarbonyloxyphenylacetamido]-3-(5-methyl-1,3,4-thiadiazol-2-yl-thiomethyl)-3-cephem-4-carboxylic acid]",MIC,[1],12.5 µg/mL
"CCN1CCN(C(=O)N[C@@H](C(=O)NC2C(=O)N3C(C(=O)O)=C(CSc4nncs4)CS[C@H]23)c2ccc(OC(C)=O)cc2)C(=O)C1=O (single isomer, unassigned) [III, 7-[D(-)-α-(4-ethyl-2,3-dioxopiperazin-1-yl-carbonylamino)-p-acetoxyphenylacetamido]-3-(1,3,4-thiadiazol-2-yl-thiomethyl)-3-cephem-4-carboxylic acid]",MIC,[2]; [24],1.56 µg/mL
same,MIC,[3]; [25],6.25 µg/mL
same,MIC,[4]; [26],3.13 µg/mL
same,dose excreted at 6 h,[5]; 20 mg/kg,48%
same,concentration at 0.5 h,[5]; [27],62 µg/mL
same,MIC,[6]; [28],1.56 µg/mL
same,MIC,[7]; [29],6.25 µg/mL
same,MIC,[8]; [30],12.5 µg/mL
same,MIC,[9]; [31],6.25 µg/mL
same,MIC,[10]; [32],3.13 µg/mL
same,MIC,[11]; [33],6.25 µg/mL
same,MIC,[12]; [34],25 µg/mL
same,MIC,[13]; [35],0.78 µg/mL
same,MIC,[14]; [36],0.78 µg/mL
same,MIC,[15]; [37],12.5 µg/mL
same,MIC,[16]; [38],1.56 µg/mL
same,MIC,[17]; [39],0.78 µg/mL
same,ED50 in Pseudomonas infection in mice,[18],2.6 mg/mouse
same,MIC,[19]; [40],12.5 µg/mL
same,MIC,[20],0.78 µg/mL
same,MIC,[21]; [41],1.56 µg/mL
same,MIC,[22]; [42],25 µg/mL
same,MIC,[23]; [43],6.25 µg/mL
"CCN1CCN(C(=O)N[C@@H](C(=O)NC2C(=O)N3C(C(=O)[O-])=C(CSc4nncs4)CS[C@H]23)c2ccc(O)cc2)C(=O)C1=O.[Na+] (single isomer, unassigned)",MIC,[2],0.78 µg/mL
same,MIC,[3]; Vibrio parahaemolyticus,6.25 µg/mL
same,MIC,[4]; Escherichia coli,1.56 µg/mL
same,concentration at 0.5 h,[5]; [27],52.8 µg/mL
same,dose excreted at 6 h,"[5]; 20 mg/kg intramuscular, after 6 hrs., sodium salts, Sarcina lutea assay, read-out: ACCUMULATIVE URINARY EXCRETION",33.4%
same,MIC,"[6]; Serratia, NO.2",3.13 µg/mL
same,MIC,[7]; Pseudomonas,1.56 µg/mL
same,MIC,[8]; Staphylococcus aureus,0.39 µg/mL
same,MIC,[9]; Vibrio parahaemolyticus,6.25 µg/mL
same,MIC,[10]; Escherichia coli,0.39 µg/mL
same,MIC,[11],1.56 µg/mL
same,MIC,[12]; Pseudomonas,25 µg/mL
same,MIC,[13]; Salmonella,0.39 µg/mL
same,MIC,[14]; Salmonella,0.39 µg/mL
same,MIC,[15]; Bacillus,0.78 µg/mL
same,MIC,[16]; ENTERITIDIS,< 0.05 µg/mL
same,MIC,[17],0.1 µg/mL
same,ED50 in Pseudomonas infection in mice,[18],3.0 mg/mouse
same,MIC,[19],6.25 µg/mL
same,MIC,[20],< 0.05 µg/mL
same,MIC,[21]; Pseudomonas aeruginosa,6.25 µg/mL
same,MIC,[22]; Enterobacter,25 µg/mL
same,MIC,"[23]; Serratia, NO.1",3.13 µg/mL
"CCOC(=O)Oc1ccc([C@@H](NC(=O)N2CCN(CC)C(=O)C2=O)C(=O)NC2C(=O)N3C(C(=O)O)=C(CSc4nnc(C)s4)CS[C@H]23)cc1 (single isomer, unassigned) [Example 11, 7-[D(-)-α-(4-ethyl-2,3-dioxopiperazin-1-yl-carbonylamino)-p-ethoxycarbonyloxyphenylacetamido]-3-(5-methyl-1,3,4-thiadiazol-2-yl-thiomethyl)-3-cephem-4-carboxylic acid]",MIC,[1],12.5 µg/mL
"CCN1CCN(C(=O)N[C@@H](C(=O)NC2C(=O)N3C(C(=O)O)=C(CSc4nncs4)CS[C@H]23)c2ccc(OC(=O)CC(C)=O)c(Cl)c2)C(=O)C1=O (single isomer, unassigned) [Example 10, 7-[D(-)-α-(4-ethyl-2,3-dioxopiperazin-1-yl-carbonylamino)-m-chloro-p-acetoacetoxyphenylacetamido]-3-(1,3,4-thiadiazol-2-yl-thiomethyl)-3-cephem-4-carboxylic acid]",MIC,[1],3.13 µg/mL
"CCN1CCN(C(=O)N[C@@H](C(=O)NC2C(=O)N3C(C(=O)O)=C(CSc4nncs4)CS[C@H]23)c2ccc(OC(C)=O)c(Cl)c2)C(=O)C1=O (single isomer, unassigned) [IV, 7-[D(-)-α-(4-ethyl-2,3-dioxopiperazin-1-yl-carbonylamino)-m-chloro-p-acetoxyphenylacetamido]-3-(1,3,4-thiadiazol-2-yl-thiomethyl)-3-cephem-4-carboxylic acid]",MIC,[2]; [24],1.56 µg/mL
same,MIC,[3]; [25],12.5 µg/mL
same,MIC,[4]; [26],6.25 µg/mL
same,dose excreted at 6 h,[5]; 20 mg/kg,27%
same,concentration at 0.5 h,[5]; [27],34.9 µg/mL
same,MIC,[6]; [28],3.13 µg/mL
same,MIC,[7]; [29],3.13 µg/mL
same,MIC,[8]; [30],6.25 µg/mL
same,MIC,[9]; [31],12.5 µg/mL
same,MIC,[10]; [32],6.25 µg/mL
same,MIC,[11]; [33],3.13 µg/mL
same,MIC,[12]; [34],25 µg/mL
same,MIC,[13]; [35],1.56 µg/mL
same,MIC,[14]; [36],1.56 µg/mL
same,MIC,[15]; [37],6.25 µg/mL
same,MIC,[16]; [38],3.13 µg/mL
same,MIC,[17]; [39],0.78 µg/mL
same,ED50 in Pseudomonas infection in mice,[18],1.8 mg/mouse
same,MIC,[19]; [40],12.5 µg/mL
same,MIC,[20],0.39 µg/mL
same,MIC,[21]; [41],3.13 µg/mL
same,MIC,[22]; [42],25 µg/mL
same,MIC,[23]; [43],3.13 µg/mL
"CCN1CCN(C(=O)N[C@@H](C(=O)NC2C(=O)N3C(C(=O)O)=C(CSc4nncs4)CS[C@H]23)c2ccc(OC(=O)CC(C)=O)cc2)C(=O)C1=O (single isomer, unassigned) [Example 9, 7-[D(-)-α-(4-ethyl-2,3-dioxopiperazin-1-yl-carbonylamino)-p-acetoacetoxyphenylacetamido]-3-(1,3,4-thiadiazol-2-yl-thiomethyl)-3-cephem-4-carboxylic acid]",MIC,[1],6.25 µg/mL
